# Source: patent US10662225B2, “Backbone cyclized inhibitory peptides of myeloid differentiation factor 88 (MyD88)” (Yissum Research Development Company of the Hebrew …, priority 2016, dated 2020)
# Numbered stars: 1 amine (or outer) side, 2 acyl side, 3 side chain; on linkers, the order of the positions; unused ones are H or OH. Bridge positions count the residues as written; N and C are the ends. Square brackets hold non-standard residues; d marks the D form. Ends that are not written are not given here. CO = O=C([*:1])[*:2]
# Key:
# [1] = tested on: MyD88-dependent signaling; assay: Library screen: TNFα production by U937 macrophage cells stimulated with PAM3Csk; type: cell-based, human; conditions: PAM3Csk overnight, peptide concentration estimated 2-4 μM
# Experimental: FIG. 4. Screening results of the peptide library of 16 compounds. Human macrophage U937 cells were stimulated with PAM3csk overnight in the absence or presence of each of the cyclic peptides. Human TNFα levels in the supernatants were determined by ELISA. […].
# The backbone cyclic library of 16 compounds synthesized in Example 3 was screened for inhibition of MyD88-dependent signaling through innate immune receptors employing the human macrophage cell line U937. […] The concentration of the cyclic peptides in the library was estimated to be 2-4 μM.
# [2] = tested on: MyD88-dependent signaling; assay: TNFα production by THP-1 derived macrophages stimulated with PAM3csk; type: cell-based, human; conditions: THP-1 macrophages, PAM3csk overnight
# Experimental: FIG. 5. Human monocytic THP-1 cells were differentiated to macrophages and were stimulated with PAM3csk overnight in the absence or presence of the cyclic 4-carbon bridge peptide or 6-carbon bridge peptide. TNFα levels in the supernatants were determined by ELISA.
# Both cyclic peptides were synthesized with the addition of a tryptophan group to the N-terminus to enable accurate quantification of the molecules.
# [3] = Metabolic stability in plasma (quantitative HPLC); type: in vitro ADME, human; conditions: plasma; 4×4MyDI: first two hours
# Experimental: FIGS. 17A and 17B. 4×4MyDI is metabolically stable in comparison to the linear MyDI peptide. 4×4MyDI vs. linear MyDI heptapeptide were incubated independently in either human plasma […] or human plasma supplemented with Brush Border Membrane Vesicles (BBMV, 18B). At various time points the solution was sampled and the amount of remaining compound was determined by quantitative HPLC.
# Peptide backbone cyclization confers metabolic stability on peptides that are inherently susceptible to degradation by proteases. […] The stability of the compounds was then tested in plasma enriched with Brush Border Membrane Vesicles (BBMV). This system models the degradative conditions of the intestine.
# MyD88 = target: T1, MyD88 (Mus musculus, UniProt P22366); assay: IL-18-induced IFN-γ secretion by MOG35-55 specific T cells (ELISA); type: cell-based
# T1 construct: endogenous in cells; host or cells: MOG35-55 specific T cells
# T1 sequence (P22366 whole entry): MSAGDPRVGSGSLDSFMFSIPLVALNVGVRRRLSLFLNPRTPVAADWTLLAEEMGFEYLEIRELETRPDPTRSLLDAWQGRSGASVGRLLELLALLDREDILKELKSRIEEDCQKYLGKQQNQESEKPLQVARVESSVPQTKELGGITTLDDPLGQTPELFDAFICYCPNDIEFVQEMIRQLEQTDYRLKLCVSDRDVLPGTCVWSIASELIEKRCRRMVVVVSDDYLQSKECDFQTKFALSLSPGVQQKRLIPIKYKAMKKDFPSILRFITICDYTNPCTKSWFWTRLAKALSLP
# Experimental: FIG. 1. MyD88 inhibitor linear peptide down-regulates IL-18-induced T-cell interferon gamma (IFN-γ) production in vitro. A: MOG35-55 specific T cells were incubated with MIP (SEQ ID NO: 1), or the scrambled version of MIP (MIPscr, PTDLVRG, SEQ ID NO: 5), or without peptide (control) for 2 h. T-cells were then plated with (right side of graph) or without (left side of graph) 30 ng/ml IL-18 for 22 h and IFN-γ production was measured by ELISA. Asterisks denote P<0.0001 compared to no inhibitor peptide or MIPscr. B: MOG35-55 specific T cells were incubated with MIP (SEQ ID NO: 1), or the scrambled version of MIP (MIPscr, SEQ ID NO: 5), or without peptide (control) for 2 h. T-cells were then plated with (right side of graph) or without (left side of graph) 30 ng/ml IL-18 for 22 h in the presence of irradiated splenocytes and MOG35-55 peptide ([…], SEQ ID NO: 4) (5 μg/ml). IFN-γ production was measured by ELISA. Asterisks denote P<0.0001 compared to no inhibitor peptide.
# To investigate the ability of the MyD88 inhibitor linear peptide (termed either MIP or MyDI) to inhibit MyD88 activity in T-cells in vitro, the secretion of IFN-γ by MOG-specific T cells in response to IL-18 stimulation was tested. The signaling of IL-18 trough the IL-18 receptor is MyD88 dependent. […] Cells were then stimulated with IL-18, and IFN-γ levels in the supernatants were analyzed after 24 h. […]
# MyD88 TIR domain = target: T2, MyD88 TIR domain (Homo sapiens, UniProt Q99836); assay: Competition assay: binding of biotinylated linear BB loop peptide to MyD88 TIR domain; conditions: different concentrations
# T2 construct: made in house
# T2 sequence (Q99836 151-296): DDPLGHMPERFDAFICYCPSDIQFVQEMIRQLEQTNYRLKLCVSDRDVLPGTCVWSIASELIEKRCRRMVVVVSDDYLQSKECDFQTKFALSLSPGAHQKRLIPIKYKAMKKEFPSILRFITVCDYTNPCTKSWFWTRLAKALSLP
# Experimental: FIG. 9. 4×4MyDI binds to the BB loop region of the MyD88 TIR domain. A 96 well plate was coated with recombinant MyD88 (8 μg/ml) in coating buffer vs. buffer alone, and wells were blocked with 1% BSA. Biotinylated linear peptide was added to all wells (125 μg/ml) followed by streptavidin-HRP and substrate. The signal of linear peptide bound to its target was inhibited by incubation with the 4×4MyDI (*P<0.05) but not by incubation with the scrambled version of the linear peptide (SEQ ID NO: 5).
# The ability of the 4×4MyDI compound to bind to the target region (the BB loop) of the MyD88 TIR domain, was evaluated using a newly-designed assay. For this goal a competition assay was established that tests the ability of the 4×4MyDI compound to prevent the binding of the biotinylated linear BB loop peptide to the MyD88 TIR domain. The MyD88 TIR domain was produced as a recombinant protein fused to the SUMO3 protein (Accession # NP_008867), purified, and attached to a 96 well plate. Binding of biotinylated RDVLPGT (SEQ. ID NO: 1) peptide was detected using streptavidin conjugated to horse radish peroxidase (HRP) followed by the addition of HRP substrate.
# [4] = tested on: NFκB p65 nuclear translocation; assay: NFκB p65 nuclear translocation in HeLa cells stimulated with TNFα or IL-1β; type: cell-based; conditions: HeLa cells
# Experimental: FIG. 6. HeLa assay showing specificity of MyD88 inhibition. HeLa cells were stimulated with recombinant TNFα or IL-1β and NFkB localization was determined with anti-p65 conjugated to rhodamine. The percent of cells with nuclear localization was determined and is shown in the bar graphs on the right. 6A: Top row, HeLa cells transduced with control shRNA. Second row, shRNA knock-down of MyD88. 6B: Top row, HeLa cells treated with MyD88 inhibitor linear peptide. Bottom row, HeLa cells treated with scrambled control version of the MyD88 inhibitor linear peptide (SEQ ID NO: 5).
# FIG. 7. HeLa assay showing specificity of MyD88 inhibition by 4×4MyDI. HeLa cells were stimulated with recombinant TNFα or IL-1b and NFkB localization was determined with anti-p65 conjugated to rhodamine. The percent of cells with nuclear localization was determined, and is shown in the bar graphs on the right. Top row, HeLa cells with no pre-treatment. Second row, HeLa cells pre-treated for 30 min with the backbone cyclic 4×4MyDI compound.
# Lead compounds were further tested in vitro to confirm the specificity of the inhibition. A fluorescence-based in vitro activity assay that determines the degree of activation of the transcription factor NFκB was established. In this assay, cells are treated with either TNFα or IL-1b, both inflammatory cytokines that activate NFκB. Upon activation, the p65 unit of the NFκB transcription factor re-locates from the cytoplasm to the nucleus. Using fluorescently-tagged antibodies to p65, the cytoplasmic vs. nuclear localization of the factor is determined. Importantly, since the signaling of IL-1b, but not TNFα, is dependent on MyD88, this assay can establish the specificity of the inhibition achieved using the lead compounds.
# Cells were activated with either IL-1β (the signaling of the IL-1 receptor is dependent on MyD88), or with TNFα (signaling of its receptor is independent of MyD88). The activation was measured by the translocation of NFκB from the cytoplasm to the nucleus. As a positive control, a stable MyD88 knock-down cell line was established using lentiviral encoded shRNA.
# Using the same system, when cells were treated with the backbone cyclic peptide 4×4MyDI, activation by IL-1β was blocked, however when treated with TNFα the activation was not inhibited.
substance,measurement,setting,value
"6×6 bridge peptide: backbone cyclic peptide of Formula IV with m=6, n=6 (W[Gly(Nα-(CH2)6-NH2)]RDVL[Gly(Nα-(CH2)6-NH2)]GT; bridge 2-7 via CO)",MyD88 inhibitory activity (reduction in TNFα production),[1],greatest MyD88 inhibitory activity
same,inhibition of TNFα production,[2],inhibited the human macrophage production of TNFα
"RDVLPGT [MIP, Arg-Asp-Val-Leu-Pro-Gly-Thr, reference compound]",stability in plasma,[3],disappears rapidly
same,reduction of the level of IFN-γ,MyD88; T cells with APC presenting MOG35-55 peptide plus IL-18,30-35%
"PTDLVRG [MIPscr, reference compound]",inhibition of binding of the biotinylated peptide to the MyD88 TIR domain,MyD88 TIR domain,did not inhibit
same,"Percent p65 nuclear translocation, TNFα",[4]; TNFα (MyD88 independent),90%
same,"Percent p65 nuclear translocation, No stimulation",[4]; no stimulation,0%
same,IL-18-stimulated IFNγ level,"MyD88; 20 mM peptide (so in the source), IL-18 stimulation, supernatants after 24 h",had no effect
